Test results taken from patent US8952024B2, “Herbicidal pyrimidone derivatives” (E I du Pont de Nemours and Company, priority 2009, dated 2015).

Assays:
Assay in all cases: Test D pre-/postemergence plant response
Assay type in all cases: in vivo
[1] = tested on: dayflower (Virginia (VA) dayflower, Commelina virginica)
In short: (§1)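 Under greenhouse conditions for 14 to 21 days, plants treated pre- or postemergence with surfactant-formulated compound were compared by eye with untreated controls and scored 0–100 (100 = complete control; dash = no result).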

[2] = tested on: mallow (common mallow, Malva sylvestris)
In short: as §1

[3] = tested on: Surinam grass (Brachiaria decumbens)
In short: as §1

[4] = tested on: green foxtail (Setaria viridis)
In short: as §1

[5] = tested on: itchgrass (Rottboellia cochinchinensis)
In short: as §1

[6] = tested on: goosegrass (Eleusine indica)
In short: as §1

[7] = tested on: kochia (Kochia scoparia)
In short: as §1

[8] = tested on: dallisgrass (Paspalum dilatatum)
In short: as §1

[9] = tested on: johnsongrass (Sorghum halepense)
In short: as §1

[10] = tested on: barnyardgrass (Echinochloa crus-galli)
In short: as §1

[11] = tested on: bermudagrass (Cynodon dactylon)
In short: as §1

[12] = tested on: guineagrass (Panicum maximum)
In short: as §1

[13] = tested on: naked crabgrass (Digitaria nuda)
In short: as §1

[14] = tested on: sowthistle (common sowthistle, Sonchus oleraceous)
In short: as §1

[15] = tested on: groundsel (common groundsel, Senecio vulgaris); conditions: Postemergence
In short: as §1

[16] = Postemergence, 16 g ai/ha, scale 0 to 100
[17] = Postemergence, 31 g ai/ha, scale 0 to 100
[18] = Postemergence, 125 g ai/ha, scale 0 to 100 (0 no effect, 100 complete control)
[19] = Postemergence, 62 g ai/ha, scale 0 to 100 (0 no effect, 100 complete control)
[20] = Preemergence, 16 g ai/ha, scale 0 to 100, 0 no effect, 100 complete control
[21] = Preemergence, 31 g ai/ha, scale 0 to 100 (0 no effect, 100 complete control)
[22] = Preemergence, 62 g ai/ha, scale 0 to 100
[23] = Preemergence, 125 g ai/ha, scale 0 to 100
[24] = Postemergence, 31 g ai/ha, scale 0 to 100 (0 no effect, 100 complete control)

O=C1CCCC(O)=C1C(=O)c1cnc(C2CC2)n(-c2ccccc2)c1=O [Compound 87]
Plant response rating, Dayflower, VA [1, 16]: 10 | Plant response rating, Dayflower, VA [1, 17]: 35 | Plant response rating, Dayflower, VA [1, 18]: 70 | Plant response rating, Dayflower, VA [1, 19]: 60 | Plant response rating, Dayflower, VA [1, 20]: 0 | Plant response rating, Dayflower, VA [1, 21]: 0 | Plant response rating, Dayflower, VA [1, 22]: 65 | Plant response rating, Dayflower, VA [1, 23]: 65 | Plant response rating, Mallow [2, 16]: 40 | Plant response rating, Mallow [2, 17]: 60 | Plant response rating, Mallow [2, 18]: 70 | Plant response rating, Mallow [2, 19]: 70 | Plant response rating, Mallow [2, 22]: 80 | Plant response rating, Mallow [2, 23]: 100 | Plant response rating, Surinam Grass [3, 16]: 30 | Plant response rating, Surinam Grass [3, 17]: 40 | Plant response rating, Surinam Grass [3, 18]: 40 | Plant response rating, Surinam Grass [3, 19]: 40 | Plant response rating, Surinam Grass [3, 20]: 0 | Plant response rating, Surinam Grass [3, 21]: 50 | Plant response rating, Surinam Grass [3, 23]: 100 | Plant response rating, Foxtail, Green [4, 16]: 5 | Plant response rating, Foxtail, Green [4, 17]: 30 | Plant response rating, Foxtail, Green [4, 18]: 60 | Plant response rating, Foxtail, Green [4, 19]: 35 | Plant response rating, Foxtail, Green [4, 20]: 0 | Plant response rating, Foxtail, Green [4, 21]: 0 | Plant response rating, Foxtail, Green [4, 22]: 0 | Plant response rating, Foxtail, Green [4, 23]: 10 | Plant response rating, Itchgrass [5, 16]: 0 | Plant response rating, Itchgrass [5, 17]: 0 | Plant response rating, Itchgrass [5, 18]: 30 | Plant response rating, Itchgrass [5, 19]: 30 | Plant response rating, Itchgrass [5, 20]: 0 | Plant response rating, Itchgrass [5, 21]: 20 | Plant response rating, Itchgrass [5, 22]: 20 | Plant response rating, Itchgrass [5, 23]: 20 | Plant response rating, Goosegrass [6, 16]: 30 | Plant response rating, Goosegrass [6, 17]: 35 | Plant response rating, Goosegrass [6, 18]: 65 | Plant response rating, Goosegrass [6, 19]: 65 | Plant response rating, Goosegrass [6, 20]: 35 | Plant response rating, Goosegrass [6, 21]: 35 | Plant response rating, Goosegrass [6, 22]: 95 | Plant response rating, Goosegrass [6, 23]: 100 | Plant response rating, Kochia [7, 16]: 25 | Plant response rating, Kochia [7, 17]: 35 | Plant response rating, Kochia [7, 18]: 60 | Plant response rating, Kochia [7, 19]: 35 | Plant response rating, Kochia [7, 20]: 65 | Plant response rating, Kochia [7, 21]: 98 | Plant response rating, Kochia [7, 22]: 100 | Plant response rating, Kochia [7, 23]: 100 | Plant response rating, Dallisgrass [8, 16]: 25 | Plant response rating, Dallisgrass [8, 17]: 25 | Plant response rating, Dallisgrass [8, 18]: 75 | Plant response rating, Dallisgrass [8, 19]: 50 | Plant response rating, Dallisgrass [8, 20]: 50 | Plant response rating, Dallisgrass [8, 21]: 50 | Plant response rating, Dallisgrass [8, 22]: 80 | Plant response rating, Dallisgrass [8, 23]: 98 | Plant response rating, Johnsongrass [9, 16]: 20 | Plant response rating, Johnsongrass [9, 17]: 30 | Plant response rating, Johnsongrass [9, 18]: 60 | Plant response rating, Johnsongrass [9, 19]: 40 | Plant response rating, Johnsongrass [9, 20]: 0 | Plant response rating, Johnsongrass [9, 21]: 5 | Plant response rating, Johnsongrass [9, 22]: 20 | Plant response rating, Johnsongrass [9, 23]: 70 | Plant response rating, Barnyardgrass [10, 16]: 35 | Plant response rating, Barnyardgrass [10, 24]: 50 | Plant response rating, Barnyardgrass [10, 18]: 70 | Plant response rating, Barnyardgrass [10, 19]: 60 | Plant response rating, Barnyardgrass [10, 20]: 0 | Plant response rating, Barnyardgrass [10, 21]: 5 | Plant response rating, Barnyardgrass [10, 22]: 50 | Plant response rating, Barnyardgrass [10, 23]: 95 | Plant response rating, Bermudagrass [11, 16]: 65 | Plant response rating, Bermudagrass [11, 24]: 65 | Plant response rating, Bermudagrass [11, 18]: 85 | Plant response rating, Bermudagrass [11, 19]: 70 | Plant response rating, Bermudagrass [11, 20]: 65 | Plant response rating, Bermudagrass [11, 21]: 65 | Plant response rating, Bermudagrass [11, 22]: 98 | Plant response rating, Bermudagrass [11, 23]: 98 | Plant response rating, Guineagrass [12, 16]: 10 | Plant response rating, Guineagrass [12, 17]: 20 | Plant response rating, Guineagrass [12, 18]: 30 | Plant response rating, Guineagrass [12, 19]: 20 | Plant response rating, Guineagrass [12, 20]: 0 | Plant response rating, Guineagrass [12, 21]: 0 | Plant response rating, Guineagrass [12, 22]: 50 | Plant response rating, Guineagrass [12, 23]: 75 | Plant response rating, Crabgrass, Naked [13, 16]: 50 | Plant response rating, Crabgrass, Naked [13, 17]: 60 | Plant response rating, Crabgrass, Naked [13, 18]: 75 | Plant response rating, Crabgrass, Naked [13, 19]: 70 | Plant response rating, Crabgrass, Naked [13, 21]: 80 | Plant response rating, Crabgrass, Naked [13, 22]: 100 | Plant response rating, Crabgrass, Naked [13, 23]: 100 | Plant response rating, Sowthistle [14, 16]: 90 | Plant response rating, Sowthistle [14, 17]: 98 | Plant response rating, Sowthistle [14, 18]: 100 | Plant response rating, Sowthistle [14, 19]: 98 | Plant response rating, Sowthistle [14, 20]: 98 | Plant response rating, Sowthistle [14, 21]: 100 | Plant response rating, Sowthistle [14, 23]: 100 | Plant response rating, Groundsel ([15]; 16 g ai/ha, scale 0 to 100): 98 | Plant response rating, Groundsel ([15]; 31 g ai/ha, scale 0 to 100): 98 | Plant response rating, Groundsel ([15]; 125 g ai/ha, scale 0 to 100 (0 no effect, 100 complete control)): 100 | Plant response rating, Groundsel ([15]; 62 g ai/ha, scale 0 to 100 (0 no effect, 100 complete control)): 100
